The values below come from ChEMBL document CHEMBL1151840, “Synthetic oligoribonucleotides containing arabinonucleotides act as agonists of TLR7 and 8” (Bioorg Med Chem Lett, 2009).

For data set [1], the species on record is Homo sapiens. In words: Stimulation of immune response in human pDC assessed as induction of IL12 production at 150 ug/ml after 24 hrs. Format: functional.
The species entered for data set [2] is Homo sapiens. As to the kind of experiment: Stimulation of immune response in human pDC assessed as induction of MIP1beta production at 150 ug/ml after 24 hrs. The data set is classed as functional.
Data set [3] is filed under the species Homo sapiens. As to the kind of experiment: Stimulation of immune response in human pDC assessed as induction of IFNalpha production at 150 ug/ml after 24 hrs. The data set is classed as functional.
Data set [4] concerns PBMC. In words: Stimulation of immune response in human PBMC assessed as induction of IFN-gamma production at 150 ug/ml after 24 hrs. The data set is classed as functional, cell-based.
Data set [5] relates to PBMC. As to the kind of experiment: Stimulation of immune response in human PBMC assessed as induction of IL1-beta production at 150 ug/ml after 24 hrs. The data set is classed as functional, cell-based.
The target of data set [6] is T1, Toll-like receptor 7 (Homo sapiens) (UniProt Q9NYK1).
T1 sequence (whole entry): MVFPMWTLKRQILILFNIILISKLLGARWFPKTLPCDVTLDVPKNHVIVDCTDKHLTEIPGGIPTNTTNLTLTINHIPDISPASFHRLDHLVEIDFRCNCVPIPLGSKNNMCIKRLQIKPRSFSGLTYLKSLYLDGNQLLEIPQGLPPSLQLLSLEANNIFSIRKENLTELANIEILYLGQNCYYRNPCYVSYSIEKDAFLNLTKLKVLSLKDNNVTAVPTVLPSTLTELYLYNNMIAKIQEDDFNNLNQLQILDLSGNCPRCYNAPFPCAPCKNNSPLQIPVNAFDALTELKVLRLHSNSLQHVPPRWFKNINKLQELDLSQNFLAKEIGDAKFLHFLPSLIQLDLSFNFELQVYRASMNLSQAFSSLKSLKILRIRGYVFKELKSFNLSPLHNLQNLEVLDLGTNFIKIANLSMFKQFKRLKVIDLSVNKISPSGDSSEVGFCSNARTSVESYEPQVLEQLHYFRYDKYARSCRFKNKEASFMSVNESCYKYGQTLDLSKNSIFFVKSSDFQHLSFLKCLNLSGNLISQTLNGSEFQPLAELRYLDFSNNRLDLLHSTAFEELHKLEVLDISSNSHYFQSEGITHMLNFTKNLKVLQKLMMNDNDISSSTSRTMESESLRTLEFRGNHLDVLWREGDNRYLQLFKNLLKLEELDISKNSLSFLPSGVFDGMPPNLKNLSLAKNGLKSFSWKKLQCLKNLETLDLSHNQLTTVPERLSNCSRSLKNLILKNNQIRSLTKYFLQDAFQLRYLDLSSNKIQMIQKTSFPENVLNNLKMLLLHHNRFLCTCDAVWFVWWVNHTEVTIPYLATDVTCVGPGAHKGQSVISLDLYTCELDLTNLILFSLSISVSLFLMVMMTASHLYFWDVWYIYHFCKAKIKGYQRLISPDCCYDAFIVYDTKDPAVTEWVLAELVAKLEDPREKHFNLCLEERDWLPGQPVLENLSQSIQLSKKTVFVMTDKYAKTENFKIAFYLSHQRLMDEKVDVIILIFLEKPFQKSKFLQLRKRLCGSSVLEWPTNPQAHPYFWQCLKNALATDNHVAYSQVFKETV
As to the kind of experiment: Agonist activity at human TLR7 expressed in HEK293XL cells assessed as NF-kappaB activation at 300 ug/ml after 18 hrs. The data set is classed as functional, cell-based.

For data set [7], the species on record is Homo sapiens. In words: Stimulation of immune response in human pDC assessed as induction of MIP1alpha production at 150 ug/ml after 24 hrs. Format: functional.
Another data set relates to Mus musculus. As to the kind of experiment: Stimulation of immune response in C57BL/6 mouse assessed as induction of serum IL12 production at 50 mg/kg, sc after 2 hrs by luminex multiplex assay. Format: functional, organism-based. The arrangement: dose 50 mg/kg.
Data set [8] has as its system PBMC. As to the kind of experiment: Stimulation of immune response in human PBMC assessed as induction of MCP1 production at 150 ug/ml after 24 hrs. Format: functional, cell-based.
Data set [9] relates to PBMC. As to the kind of experiment: Stimulation of immune response in human PBMC assessed as induction of RANTES production at 150 ug/ml after 24 hrs. The data set is classed as functional, cell-based.
The test system of data set [10] is PBMC. As to the kind of experiment: Stimulation of immune response in human PBMC assessed as induction of IL2R level at 150 ug/ml after 24 hrs. Format: functional, cell-based.
Data set [11] relates to PBMC. As to the kind of experiment: Stimulation of immune response in human PBMC assessed as induction of IL10 production at 150 ug/ml after 24 hrs. The data set is classed as functional, cell-based.
The test system of data set [12] is PBMC. In words: Stimulation of immune response in human PBMC assessed as induction of IFNalpha production at 150 ug/ml after 24 hrs. Format: functional, cell-based.
The nature of data set [13]: Stability in human serum assessed as full-length compound remaining after 10 mins by anion-exchange HPLC. Format: ADME, cell-free. Conditions: read-out: Stability.
Data set [14] relates to PBMC. In words: Stimulation of immune response in human PBMC assessed as induction of MIP1alpha production at 150 ug/ml after 24 hrs. Format: functional, cell-based.
Data set [15] deals with PBMC. As to the kind of experiment: Stimulation of immune response in human PBMC assessed as induction of IL8 production at 150 ug/ml after 24 hrs. The data set is classed as functional, cell-based.
For data set [16], the species on record is Homo sapiens. As to the kind of experiment: Stimulation of immune response in human pDC assessed as induction of IFN-gamma production at 150 ug/ml after 24 hrs. Format: functional.
Data set [17] concerns PBMC. In words: Stimulation of immune response in human PBMC assessed as induction of IL12 production at 150 ug/ml after 24 hrs. Format: functional, cell-based.
Data set [18] relates to PBMC. As to the kind of experiment: Stimulation of immune response in human PBMC assessed as induction of MIP1beta production at 150 ug/ml after 24 hrs. Format: functional, cell-based.
Data set [19] concerns the target T2, Toll-like receptor 8 (Homo sapiens) (UniProt Q9NR97).
T2 sequence (whole entry): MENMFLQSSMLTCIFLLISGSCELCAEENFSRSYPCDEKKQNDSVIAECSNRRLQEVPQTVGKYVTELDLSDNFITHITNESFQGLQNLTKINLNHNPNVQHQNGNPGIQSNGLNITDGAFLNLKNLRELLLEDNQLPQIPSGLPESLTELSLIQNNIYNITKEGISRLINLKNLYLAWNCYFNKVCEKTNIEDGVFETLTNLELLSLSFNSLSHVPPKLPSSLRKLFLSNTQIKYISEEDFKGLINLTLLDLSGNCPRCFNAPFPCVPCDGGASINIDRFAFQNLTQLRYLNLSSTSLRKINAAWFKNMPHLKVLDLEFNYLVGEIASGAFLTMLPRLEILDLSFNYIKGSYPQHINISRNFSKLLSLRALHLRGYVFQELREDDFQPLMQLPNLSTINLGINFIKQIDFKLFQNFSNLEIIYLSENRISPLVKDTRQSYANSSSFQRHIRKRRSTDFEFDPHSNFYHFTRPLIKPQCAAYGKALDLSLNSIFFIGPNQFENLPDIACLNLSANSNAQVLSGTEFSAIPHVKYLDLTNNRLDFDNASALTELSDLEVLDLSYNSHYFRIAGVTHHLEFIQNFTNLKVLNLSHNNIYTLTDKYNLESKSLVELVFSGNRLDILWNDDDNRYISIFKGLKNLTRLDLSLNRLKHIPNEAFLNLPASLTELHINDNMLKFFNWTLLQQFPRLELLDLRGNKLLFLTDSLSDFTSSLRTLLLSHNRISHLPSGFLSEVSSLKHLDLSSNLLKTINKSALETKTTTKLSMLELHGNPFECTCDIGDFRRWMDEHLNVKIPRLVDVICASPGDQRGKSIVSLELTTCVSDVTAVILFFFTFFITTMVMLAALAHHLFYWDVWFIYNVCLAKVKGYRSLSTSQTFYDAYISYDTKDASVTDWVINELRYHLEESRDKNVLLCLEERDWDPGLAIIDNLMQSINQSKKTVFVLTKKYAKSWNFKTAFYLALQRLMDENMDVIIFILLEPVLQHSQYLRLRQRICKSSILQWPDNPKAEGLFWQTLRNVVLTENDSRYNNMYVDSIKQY
As to the kind of experiment: Agonist activity at human TLR8 expressed in HEK293XL cells assessed as NF-kappaB activation after 18 hrs. Format: functional, cell-based.

The species named for data set [20] is Homo sapiens. As to the kind of experiment: Stimulation of immune response in human pDC assessed as induction of TNFalpha production at 150 ug/ml after 24 hrs. The data set is classed as functional.
In data set [21] the test system is PBMC. In words: Stimulation of immune response in human PBMC assessed as induction of TNFalpha production at 150 ug/ml after 24 hrs. Format: functional, cell-based.

Calls of active or inactive are those of the source. The rule behind the calls is not given here.

As for `Nc1ccn([C@@H]2O[C@H](COP(=O)(S)O[C@H]3[C@@H](O)[C@H](n4ccc(=O)[nH]c4=O)O[C@@H]3COP(=O)(S)O[C@H]3[C@@H](O)[C@H](n4ccc(=O)[nH]c4=O)O[C@@H]3COP(=O)(S)O[C@H]3[C@@H](O)[C@H](n4cnc5c(=O)[nH]c(N)nc54)O[C@@H]3COP(=O)(S)O[C@H]3[C@@H](O)[C@H](n4ccc(=O)[nH]c4=O)O[C@@H]3COP(=O)(S)O[C@H]3[C@@H](O)[C@H](n4cnc5c(=O)[nH]c(N)nc54)O[C@@H]3COP(=O)(S)OCC(O)COP(=O)(S)O[C@H]3[C@@H](O)[C@H](n4cnc5c(=O)[nH]c(N)nc54)O[C@@H]3COP(=O)(S)O[C@H]3[C@@H](O)[C@H](n4ccc(=O)[nH]c4=O)O[C@@H]3COP(=O)(S)O[C@H]3[C@@H](O)[C@H](n4cnc5c(=O)[nH]c(N)nc54)O[C@@H]3COP(=O)(S)O[C@H]3[C@@H](O)[C@H](n4ccc(=O)[nH]c4=O)O[C@@H]3COP(=O)(S)O[C@H]3[C@@H](O)[C@H](n4ccc(=O)[nH]c4=O)O[C@@H]3COP(=O)(S)O[C@H]3[C@@H](O)[C@H](n4ccc(N)nc4=O)O[C@@H]3COP(=O)(S)O[C@H]3[C@@H](O)[C@H](n4cnc5c(=O)[nH]c(N)nc54)O[C@@H]3COP(=O)(S)O[C@H]3[C@H](O)[C@H](n4ccc(=O)[nH]c4=O)O[C@@H]3COP(=O)(S)O[C@H]3[C@@H](O)[C@H](n4ccc(N)nc4=O)O[C@@H]3COP(=O)(S)O[C@H]3[C@@H](O)[C@H](n4cnc5c(=O)[nH]c(N)nc54)O[C@@H]3COP(=O)(S)O[C@H]3[C@H](O)[C@H](n4ccc(=O)[nH]c4=O)O[C@@H]3CO)[C@@H](OP(=O)(S)OC[C@H]3O[C@@H](n4cnc5c(=O)[nH]c(N)nc54)[C@H](O)[C@@H]3OP(=O)(S)OC[C@H]3O[C@@H](n4ccc(=O)[nH]c4=O)[C@@H](O)[C@@H]3OP(=O)(S)OC[C@H]3O[C@@H](n4ccc(N)nc4=O)[C@H](O)[C@@H]3OP(=O)(S)OC[C@H]3O[C@@H](n4cnc5c(=O)[nH]c(N)nc54)[C@H](O)[C@@H]3OP(=O)(S)OC[C@H]3O[C@@H](n4ccc(=O)[nH]c4=O)[C@@H](O)[C@@H]3OP(=O)(O)S)[C@H]2O)c(=O)n1` (some centres not stated), the result in the data set listed under Homo sapiens [1], in the data set listed under Homo sapiens [2], in the data set with PBMC [4], with PBMC [5], in the data set listed under Homo sapiens [7] and in the data set with PBMC [8] was Active. The outcome in the data set on PBMC [9], with PBMC [10], in the data set on PBMC [11], in the data set with PBMC [12], with PBMC [14] and in the data set on PBMC [15] was Active. Moreover, the outcome in the data set filed under Homo sapiens [16], in the data set on PBMC [17], in the data set with PBMC [18], in the data set listed under Homo sapiens [20] and in the data set on PBMC [21] was Active. Moreover, the outcome (in the data set listed under Homo sapiens [3]; in data set [6]; in the data set on Mus musculus) was inactive. Besides, in data set [13], the remaining at 10 min was determined as 76%. Further, in data set [19], the Activity entry is “Dose-dependent effect”.
